These compounds were tested against CDK-2 (Homo sapiens, UniProt P24941) (assay: CDK-2 inhibition, fluorescence polarization displacement assay).
Method: Binding assays were performed in a 384 well Costar NBS coated plate. […] The concentration of BMS-Alexa Fluor647 was 50 nM. Serial dilutions of compounds were added to 12 wells. The final buffer concentration was 10 mM Hepes, pH 7.5, 150 mM NaCl, and 1 mM DTT. Samples were incubated at room temperature for 15 minutes and then read in an Analyst HT instrument using an excitation and emission wavelength of 580 and 680 nm, respectively.

| Structure (SMILES) | IC50 [µM] |
| --- | --- |
| COC[C@H](Cc1ccc(O)cc1)NC(=O)c1cc(C(=O)OCCO)c2cc(-c3cccc(C(F)(F)F)c3)ccc2n1 [Compound 173] | > 40 |
| COC[C@H](Cc1ccc(O)cc1)NC(=O)c1cc(C(=O)O)c2cc(-c3cccc(CNC(CO)CO)c3)ccc2n1 [Compound 197] | > 40 |
| COC(=O)[C@H](Cc1cccnc1)NC(=O)c1cc(C(=O)O)c2cc(-c3cccc(C(F)(F)F)c3)ccc2n1 [Compound 164] | > 40 |
| COC[C@H](Cc1ccc(O)cc1)NC(=O)c1cc(C(=O)O)c2cc(COc3ccccn3)ccc2n1 [Compound 207] | > 40 |
| COC[C@H](Cc1ccc(O)cc1)NC(=O)c1cc(C(=O)O)c2cc(COc3ccc(C(F)(F)F)cc3)ccc2n1 [Compound 129] | 1 to 40 |
| COC(=O)[C@H](Cc1ccc(O)cc1)NC(=O)c1cc(C(=O)O)c2cc(-c3cccc([N+](=O)[O-])c3)ccc2n1 [Compound 33] | < 1 |
| CC(Cc1ccc(O)cc1)NC(=O)c1cc(C(=O)O)c2cc(-c3cccc(C(F)(F)F)c3)ccc2n1 (stereo not drawn) [Compound 110] | 1 to 40 |
| COC(=O)[C@H](Cc1ccc(O)cc1)NC(=O)c1cc(C(=O)O)c2cc(/C=C/C(C)(C)C)ccc2n1 [Compound 11] | < 1 |
| COC(=O)[C@H](Cc1ccc(O)cc1)NC(=O)c1cc(C(=O)O)c2cc(-c3cccc(C#N)c3)ccc2n1 [Compound 36] | < 1 |
| COC(=O)[C@H](Cc1ccc(O)cc1)NC(=O)c1cc(C(=O)O)c2cc(-c3ccc(Cl)cc3)ccc2n1 [Compound 83] | < 1 |
| COC[C@H](Cc1ccc(O)cc1)NC(=O)c1cc(S(=O)(=O)O)c2cc(-c3cccc(C(F)(F)F)c3)ccc2n1 [Compound 71] | < 1 |
| COC[C@H](Cc1ccc(O)cc1)NC(=O)c1cc(C(=O)O)c2cc(COc3ccc(O)cc3)ccc2n1 [Compound 202] | > 40 |
| COC(=O)[C@H](Cc1ccc(O)cc1)NC(=O)c1cc(C(=O)O)c2cc(-c3ccc(N)cc3)ccc2n1 [Compound 145] | 1 to 40 |
| COC[C@H](Cc1ccc(O)cc1)NC(=O)c1cc(C(=O)O)c2cc(C#Cc3ccccc3C(F)(F)F)ccc2n1 [Compound 148] | 1 to 40 |
| COC[C@H](Cc1ccc(O)cc1)NC(=O)c1cc(S(C)(=O)=O)c2cc(-c3cccc(C(F)(F)F)c3)ccc2n1 [Compound 172] | > 40 |
| COC[C@H](Cc1ccc(O)cc1)NC(=O)c1cc(C(=O)NS(C)(=O)=O)c2cc(-c3cccc(C(F)(F)F)c3)ccc2n1 [Compound 95] | 1 to 40 |
| CNC(=O)[C@H](Cc1ccc(O)cc1)NC(=O)c1cc(C(=O)O)c2cc(/C=C/c3ccc(Cl)cc3)ccc2n1 [Compound 14] | < 1 |
| COC[C@H](Cc1ccc(O)cc1)NC(=O)c1cc(C(=O)OCCO)c2cc(/C=C/c3ccc(Cl)cc3)ccc2n1 [Compound 214] | > 40 |
| COC[C@H](Cc1ccc(O)cc1)NC(=O)c1cc(C(=O)O)c2cc(CCc3cccnc3)ccc2n1 [Compound 187] | > 40 |
| COC(=O)[C@H](Cc1ccc(O)cc1)NC(=O)c1cc(C(=O)O)c2cc(-c3ccc(Oc4ccccc4)cc3)ccc2n1 [Compound 51] | < 1 |
| COC(=O)c1cc(C(=O)N[C@@H](Cc2ccc(O)cc2)C(=O)OC)nc2ccc(-c3cccs3)cc12 [Compound 229] | > 40 |
| COC(=O)[C@H](Cc1ccc(O)cc1)NC(=O)c1cc(C(=O)O)c2cc(-c3ccc(Cl)c(F)c3)ccc2n1 [Compound 92] | 1 to 40 |

Continued, values first:

| IC50 [µM] | Structure (SMILES) |
| --- | --- |
| > 40 | COC[C@H](Cc1ccc(O)cc1)NC(=O)c1cc(C(=O)O)c2cc(CSc3ccncc3)ccc2n1 [Compound 208] |
| 1 to 40 | COC(=O)[C@H](Cc1ccc(O)cc1)NC(=O)c1cc(C(=O)O)c2cc(-c3cccc(F)c3)ccc2n1 [Compound 93] |
| 1 to 40 | COC[C@H](Cc1ccc(O)cc1)NC(=O)c1cc(C(=O)O)c2cc(C#CCCC#N)ccc2n1 [Compound 152] |
| > 40 | COC(=O)[C@H](Cc1ccc(O)cc1)NC(=O)c1cc(C(=O)Nc2nnn[nH]2)c2cc(-c3cccs3)ccc2n1 [Compound 234] |
| 1 to 40 | COC(=O)[C@H](Cc1ccc(O)cc1)NC(=O)c1cc(C(=O)O)c2cc(-c3cccnc3)ccc2n1 [Compound 130] |
| > 40 | COC(=O)[C@H](Cc1ccc(O)cc1)NC(=O)c1cc(C(=O)OCC(N)C(C)C)c2cc(-c3cccs3)ccc2n1 (stereo partly drawn) [Compound 228] |
| > 40 | COC[C@H](Cc1ccc(O)cc1)NC(=O)c1cc(C(=O)O)c2cc(COc3ccc(OC)cc3)ccc2n1 [Compound 200] |
| < 1 | COC(=O)[C@H](Cc1ccc(O)cc1)NC(=O)c1cc(C(=O)O)c2cc(CCc3ccccc3)ccc2n1 [Compound 60] |
| < 1 | O=C(N[C@@H](Cc1ccc(O)cc1)c1ncc[nH]1)c1cc(C(=O)O)c2cc(-c3cccc(C(F)(F)F)c3)ccc2n1 [Compound 86] |
| < 1 | COC(=O)[C@H](Cc1ccc(O)cc1)NC(=O)c1cc(C(=O)O)c2cc(-c3cc4ccccc4s3)ccc2n1 [Compound 58] |
| > 40 | COC[C@H](Cc1ccc(O)cc1)NC(=O)c1cc(C(=O)OCC(O)CO)c2cc(/C=C/c3ccc(Cl)cc3)ccc2n1 (stereo partly drawn) [Compound 215] |
| > 40 | COC[C@H](Cc1ccc(O)cc1)NC(=O)c1cc(C(=O)O)c2cc(COc3ccccc3)ccc2n1 [Compound 180] |
| > 40 | COC(=O)C(Cc1ccc(O)cc1)NC(=O)c1cc(C(=O)NC(C)(C)C(=O)O)c2cc(-c3cccs3)ccc2n1 (stereo not drawn) [Compound 154] |
| > 40 | COC(=O)[C@H](Cc1ccc(O)cc1)NC(=O)c1cc(C(=O)O)c2cc(-c3cccc(NC(C)=O)c3)ccc2n1 [Compound 158] |
| > 40 | COC(=O)[C@H](Cc1ccc(OC)cc1)NC(=O)c1cc(S(C)(=O)=O)c2cc(-c3cccc(C(F)(F)F)c3)ccc2n1 [Compound 171] |
| < 1 | COC(=O)[C@H](Cc1ccc(O)cc1)NC(=O)c1cc(C(=O)O)c2cc(-c3ccc(OC)cc3)ccc2n1 [Compound 76] |
| > 40 | COC(=O)[C@H](Cc1ccc(O)cc1)NC(=O)c1cc(C(=O)O)c2cc(-c3cncnc3)ccc2n1 [Compound 226] |
| > 40 | COC[C@H](Cc1ccc(O)cc1)NC(=O)c1cc(C(=O)O)c2cc(-c3cccc(CN(C)C)c3)ccc2n1 [Compound 190] |
| 1 to 40 | COC(=O)[C@H](Cc1ccc(O)cc1)NC(=O)c1cc(C(=O)O)c2cc(-c3ccccc3OC)ccc2n1 [Compound 151] |
| > 40 | COC[C@H](Cc1ccc(O)cc1)NC(=O)c1cc(C(=O)O)c2cc(C#CCN(C)C)ccc2n1 [Compound 185] |
| 1 to 40 | COC(=O)[C@H](Cc1ccc(O)cc1)NC(=O)c1cc(C(=O)O)c2cc(-c3ccc(F)cc3)ccc2n1 [Compound 135] |
| 1 to 40 | COC(=O)[C@H](Cc1ccc(O)cc1)NC(=O)c1cc(C(=O)O)c2cc(-c3cccc(C(C)=O)c3)ccc2n1 [Compound 104] |
| > 40 | CCCCOC(=O)c1cc(C(=O)N[C@H](COC)Cc2ccc(O)cc2)nc2ccc(-c3cccc(C(F)(F)F)c3)cc12 [Compound 177] |

Reference: patent EP1931657B1, “NOVEL HIGH AFFINITY QUINOLINE-BASED KINASE LIGANDS” (Merck Sharp & Dohme Corp., priority 2005, dated 2007)
